# Source: US20250113823A1, “Arthropod Control Compositions” (priority 2022, published 2025)
# Read-outs that look alike come from different tables or passages of the source.
# What was measured:
# Anopheles gambiae [1] = experiment: Arm-in-cage test on human volunteers over time; assay type: in vivo; conditions: arm treated with 20%
# Anopheles gambiae [2] = experiment: Warm Body assay, mosquito landings on treated warm body; assay type: in vivo
# Experimental: Anopheles gambiae is also a model organism as it is anthropophilic and transmits malaria.
# The controlling effect according to the present invention was assessed using an adapted Warm Body assay as defined in Kröber T, Kessler S, Frei J, Bourquin M, Guerin P M. 2010. J Am Mosq Control Assoc. 26: 381-386. In this in-vitro assay the number of mosquito landing on a warm body, simulating an attractive host treated with the tested stimuli, was measured in order to assess the repellence effect.
# On the sandblasted glass Petri dish covering the warm body (28.3 cm^2), 100 μL of the compounds diluted at different concentrations in ethanol was applied. The number of mosquito landing on the warm body was counted for each stimulus and pure ethanol (solvent) as control.
# Ixodes ricinus = experiment: Warm Plate assay, tick repellence; conditions: for pest or weed control at 400 µg/mL / pest or weed control at 2000 µg/mL / pest or weed control at 10000 µg/mL: Ixodes ricinus, read-out: Percentage of repellence of ticks Ixodes ricinus on the warm plate
# Aedes aegypti = experiment: Warm Body assay, mosquito landings on treated warm body; assay type: in vivo; conditions: for pest or weed control at 1 % / pest or weed control at 0.04 %: read-out: repellence; for pest or weed control at 0.04 %: intermediate concentration of 0.04% (Table 3)
# Outline: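 Compounds in ethanol (100 μL, various concentrations) were applied to a sandblasted glass dish covering the warm body (28.3 cm^2), with ethanol as control. Landings were counted automatically from 30 non-blood-fed, sugar-fed Aedes aegypti Rockefeller females aged 5–10 days, under 150 lux.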
# [3] = Aedes aegypti, 0.016 mg/mL (Table 3), read-out: Percentage of repellence of mosquitoes Aedes aegypti landing on the warm body
# [4] = Aedes aegypti, 0.4 mg/mL (Table 3), read-out: Percentage of repellence of mosquitoes Aedes aegypti landing on the warm body
# [5] = Aedes aegypti, 10 mg/mL (Table 3), read-out: Percentage of repellence of mosquitoes Aedes aegypti landing on the warm body
# [6] = Aedes aegypti, highest tested concentration, 1% (Table 3)
structure (smiles),measurement,setting,value
"CCCCN(CCC(=O)OCC)C(C)=O [IR3535, ethyl butylacetylaminopropionate, reference compound]",Complete Protection Time (no confirmed landing),Anopheles gambiae [1],0.17 h
"COC(=O)Oc1ccc(C)cc1OC [compound 1141, (2-methoxy-4-methylphenyl) methyl carbonate]",pest or weed control at 4470 µg/mL,"Anopheles gambiae [2]; Anopheles gambiae, 4.47 mg/mL (Table 4), read-out: Percentage of repellence of mosquitoes Anopheles gambiae landing on the warm body",100%
same,pest or weed control at 10000 µg/mL,"Anopheles gambiae [2]; Anopheles gambiae, 10 mg/mL (Table 4), read-out: Percentage of repellence of mosquitoes Anopheles gambiae landing on the warm body",69%
same,repellence (no mosquito landing on the attractive stimulus),Anopheles gambiae [2]; with at least one of the two concentrations 0.447% & 1% (Table 4),100%
same,pest or weed control at 400 µg/mL,Ixodes ricinus,8.3%
same,pest or weed control at 2000 µg/mL,Ixodes ricinus,58.3%
same,pest or weed control at 10000 µg/mL,Ixodes ricinus,66.7%
same,pest or weed control at 3.2 µg/mL,"Aedes aegypti; Aedes aegypti, 0.0032 mg/mL (Table 1), read-out: Percentage of repellence of mosquitoes Aedes aegypti landing on the warm body",24%
same,pest or weed control at 7.1 µg/mL,"Aedes aegypti; Aedes aegypti, 0.0071 mg/mL (Table 1), read-out: Percentage of repellence of mosquitoes Aedes aegypti landing on the warm body",39%
same,pest or weed control at 16 µg/mL,"Aedes aegypti; Aedes aegypti, 0.016 mg/mL (Table 1), read-out: Percentage of repellence of mosquitoes Aedes aegypti landing on the warm body",17%
same,pest or weed control at 35.7 µg/mL,"Aedes aegypti; Aedes aegypti, 0.0357 mg/mL (Table 1), read-out: Percentage of repellence of mosquitoes Aedes aegypti landing on the warm body",13%
same,pest or weed control at 53 µg/mL,"Aedes aegypti; Aedes aegypti, 0.053 mg/mL (Table 1), read-out: Percentage of repellence of mosquitoes Aedes aegypti landing on the warm body",50%
same,pest or weed control at 80 µg/mL,"Aedes aegypti; Aedes aegypti, 0.08 mg/mL (Table 1), read-out: Percentage of repellence of mosquitoes Aedes aegypti landing on the warm body",39%
same,pest or weed control at 178 µg/mL,"Aedes aegypti; Aedes aegypti, 0.178 mg/mL (Table 1), read-out: Percentage of repellence of mosquitoes Aedes aegypti landing on the warm body",67%
same,pest or weed control at 400 µg/mL,"Aedes aegypti; Aedes aegypti, 0.4 mg/mL (Table 1), read-out: Percentage of repellence of mosquitoes Aedes aegypti landing on the warm body",72%
same,pest or weed control at 890 µg/mL,"Aedes aegypti; Aedes aegypti, 0.89 mg/mL (Table 1), read-out: Percentage of repellence of mosquitoes Aedes aegypti landing on the warm body",98%
same,pest or weed control at 2000 µg/mL,"Aedes aegypti; Aedes aegypti, 2 mg/mL (Table 1), read-out: Percentage of repellence of mosquitoes Aedes aegypti landing on the warm body",89%
same,pest or weed control at 4470 µg/mL,"Aedes aegypti; Aedes aegypti, 4.47 mg/mL (Table 1), read-out: Percentage of repellence of mosquitoes Aedes aegypti landing on the warm body",87%
same,pest or weed control at 10000 µg/mL,"Aedes aegypti; Aedes aegypti, 10 mg/mL (Table 1), read-out: Percentage of repellence of mosquitoes Aedes aegypti landing on the warm body",91%
"COc1ccc(C=O)c(OC(C)=O)c1 [compound 1472, (2-formyl-5-methoxyphenyl) acetate]",pest or weed control at 400 µg/mL,Ixodes ricinus,0%
same,pest or weed control at 2000 µg/mL,Ixodes ricinus,54.5%
same,pest or weed control at 10000 µg/mL,Ixodes ricinus,100%
same,ticks repelled,Ixodes ricinus; concentration of 1% (Table 10),repel all the ticks
same,pest or weed control at 16 µg/mL,Aedes aegypti; [3],31%
same,pest or weed control at 400 µg/mL,Aedes aegypti; [4],81%
same,pest or weed control at 10000 µg/mL,Aedes aegypti; [5],100%
same,pest or weed control at 1 %,Aedes aegypti; [6],> 90%
same,pest or weed control at 0.04 %,Aedes aegypti; Aedes aegypti,> 75%
same,mosquito landing within the two minutes of experiments,"Aedes aegypti; highest tested concentration, 1% (Table 3)",protect the attractive stimulus for any mosquito landing
"C=CCOCc1ccc(O)c(OCC)c1 [compound 1479, 4-[(allyloxy)methyl]-2-ethoxyphenol]",pest or weed control at 400 µg/mL,Ixodes ricinus,66.7%
same,pest or weed control at 2000 µg/mL,Ixodes ricinus,100%
same,pest or weed control at 10000 µg/mL,Ixodes ricinus,100%
same,ticks repelled,Ixodes ricinus; concentration of 1% (Table 10),repel all the ticks
same,ticks repelled,Ixodes ricinus; concentrations of 0.2% and 1% (Table 10),repelled all ticks
same,fraction of the tested ticks repelled,Ixodes ricinus; lowest tested concentration of 0.04% (Table 10),⅔
same,pest or weed control at 16 µg/mL,Aedes aegypti; [3],55%
same,pest or weed control at 400 µg/mL,Aedes aegypti; [4],89%
same,pest or weed control at 10000 µg/mL,Aedes aegypti; [5],98%
same,pest or weed control at 1 %,Aedes aegypti; [6],> 90%
same,pest or weed control at 0.04 %,Aedes aegypti; Aedes aegypti,> 75%
same,pest or weed control at 0.0016 %,"Aedes aegypti; Aedes aegypti, lowest concentration of 0.0016% (Table 3), read-out: reduce the number of mosquito landings",> 50%
"CCOCc1ccc(O)c(OCC)c1 [compound 1482, 2-ethoxy-4-(ethoxymethyl)phenol]",pest or weed control at 400 µg/mL,Ixodes ricinus,30.8%
same,pest or weed control at 2000 µg/mL,Ixodes ricinus,66.7%
same,pest or weed control at 10000 µg/mL,Ixodes ricinus,100%
same,ticks repelled,Ixodes ricinus; concentration of 1% (Table 10),repel all the ticks
same,pest or weed control at 16 µg/mL,Aedes aegypti; [3],31%
same,pest or weed control at 400 µg/mL,Aedes aegypti; [4],82%
same,pest or weed control at 10000 µg/mL,Aedes aegypti; [5],96%
same,pest or weed control at 1 %,Aedes aegypti; [6],> 90%
same,pest or weed control at 0.04 %,Aedes aegypti; Aedes aegypti,> 75%
